{"source": "patent US20170095505A1", "about": "“COMBINATION OF XENON AND AN ANTIOXIDANT TO CONTROL A PARKINSON'S DISEASE-TYPE NEURODEGENERATIVE DISEASE” (L'Air Liquide, Société Anonyme pour I'Etude et …, priority 2014, published 2017)", "system": "TH-positive (dopaminergic) neurons of mesencephalon cultures", "experiment": "Survival of TH-positive dopaminergic neurons in rat mesencephalon primary cultures, degeneration by chronic treatment with PDC, under controlled gaseous atmosphere", "assay_type": "cell-based", "design": "key to Survival of TH-positive neurons: a favorable response, synonymous with a decrease in the level of neuronal cell death in the presence of the treatments of interest, is denoted by a “+”, “++”, or “+++” sign (+++ = level of reference); a favorable response, synonymous with a decrease in the level of neuronal cell death in the presence of the treatments of interest, is denoted by a “+”, “++”, or “+++” sign; a favorable response, synonymous with a decrease in the level of neuronal cell death in the presence of the treatments of interest, is denoted by a “+”, “++”, or “+++” sign; an unfavorable response is represented by a “−” sign, synonymous with an increase in the neuronal death", "details": "for Survival of TH-positive neurons: D13-D16, analyzed D16; for survival rate of dopaminergic neuronal cells: % of cultures not treated with PDC under 75% nitrogen", "protocol": "Cultures are prepared from mesencephalon of rat embryos, taken from gestating female Wistar rats on day 15.5 of gestation. The method for obtaining the mesencephalon cultures comprises obtaining a homogeneous cell suspension via mechanical dissociation, i.e. non-enzymatic dissociation, of the embryonic tissue, using Leibovitz L15 medium (Sigma Aldrich). Aliquots of this suspension are added to Nunc 48-well plates, which were precoated with a thin layer of polyethyleneimine (1 mg/ml, borate buffer, pH 8.3) so as to enable the adhesion of the neuronal cells (cf. Toulorge et al., Faseb J, 2011). The seeding density is between approximately 80 000 and 100 000 cells/cm^2. The mesencephalon cultures are maintained in neurobasal culture medium, containing a B27 cocktail without antioxidant, N2 supplement, glutamine (2 mM) and a penicillin/streptomycin cocktail ([…] al., J Neurochem, 2008). The medium and supplements thereof are available from Life Technologies. Up to the time when the effects of the gases of interest are evaluated, the cultures are placed in a conventional enclosure thermostatically controlled at 37° C., in which the CO2 is maintained at 5% by volume and wherein the atmosphere is saturated with water. No change of culture medium is carried out throughout the culture period. Pharmacological Treatments of the Cultures p The degenerative process is triggered by applying a glutamate reuptake system blocker, L-trans-pyrrolidine-2,4-dicarboxylic acid or PDC (Zuiderwijk et al., Europ J Pharmacol, 1994). The antioxidant, namely Trolox, is added to the cultures before the application of PDC. Once the pharmacological treatments have been carried out, the multiwell plates containing the cells in culture and the plate used to humidify the internal compartment of the chamber are placed on a metal base which receives the Plexiglas incubation chamber. The two parts (base and Plexiglas chamber) are butt-joined together by screwing. A gas mixture of interest comprising (% by volume): 20% of O2, 5% of CO2 and 75% of the gas tested is then injected into the incubation chamber, with open inlet and outlet valves, while at the same time controlling the output flow rate by means of a flow meter. The gases tested are nitrogen and xenon. The reference output flow rate, set for air at 10 liters/min, is corrected according to the density of the mixture used. When the CO2 measurement reaches 5% at the outlet, the injection of the gas mixture is stopped and the chamber is made totally airtight by closing the inlet and outlet valves. The exposure chamber is then placed in an enclosure at 37° C. throughout the experimental protocol. After breaking the […] by opening the inlet and outlet valves and unscrewing the chamber from its base, the cultures are fixed with 4% formaldehyde in PBS for 12 min and then incubated at 4° C. with an anti-TH monoclonal antibody (dilution 1/5000) for 2 days. […] The image acquisition is carried out with an infrared imager of Odyssey type (Li-COR Biosciences) and the quantification of the neurons is carried out by means of the ICY software (Institut Pasteur). The results recorded on the figure appended hereto illustrate the synergistic protective effects of xenon and of Trolox in a cell model mimicking chronic Parkinsonian degeneration. […] The cultures are then recovered for fixing and analysis. The neuronal survival is quantified under the various experimental conditions tested, by counting the number of cell bodies immunopositive for the dopaminergic marker TH. The results are expressed in % (±SEM) of the mean values of the cultures not treated with PDC, maintained under 75% of nitrogen (control condition)."}
{"compound": "O=C(O)[C@H]1CN[C@H](C(=O)O)C1", "note": "(relative stereo) [PDC, L-trans-pyrrolidine-2,4-dicarboxylic acid]", "values": [{"measurement": "Survival of TH-positive neurons", "setting": "PDC 100 μM, 20% O2 + 5% CO2 + 75% N2", "result": "−"}, {"measurement": "survival rate of dopaminergic neuronal cells", "setting": "PDC 100 μM, atmosphere containing 75 vol % nitrogen", "result": 25.4, "unit": "%"}]}
{"compound": "Cc1c(C)c2c(c(C)c1O)CCC(C)(C(=O)O)O2", "note": "(stereo not drawn) [Trolox, 6-hydroxy-2,5,7,8-tetramethylchromane-2-carboxylic acid]", "values": [{"measurement": "Survival of TH-positive neurons", "setting": "PDC 100 μM + Trolox 0.1 μM, 75% N2", "result": "−"}, {"measurement": "Survival of TH-positive neurons", "setting": "PDC 100 μM + Trolox 0.3 μM, 75% N2", "result": "−"}, {"measurement": "Survival of TH-positive neurons", "setting": "PDC 100 μM + Trolox 1 μM, 75% N2", "result": "+"}, {"measurement": "Survival of TH-positive neurons", "setting": "PDC 100 μM + Trolox 10 μM, 75% N2", "result": "++"}, {"measurement": "Trolox concentration from which a significant protective effect is produced", "setting": "PDC 100 μM, 75% nitrogen, p<0.05 vs cultures exposed only to PDC in the same atmosphere", "result": "≥ 1", "unit": "µM"}, {"measurement": "effect of Trolox applied alone on neuronal survival", "setting": "PDC 100 μM, Trolox 0.1-0.3 μM, atmosphere containing 75% nitrogen", "result": "no significant effect"}]}
{"compound": "[Xe]", "note": "[Xe, xenon]", "values": [{"measurement": "Survival of TH-positive neurons", "setting": "PDC 100 μM, 20% O2 + 5% CO2 + 75% Xe", "result": "++"}, {"measurement": "survival of dopaminergic neurons treated with PDC, 75% xenon compared with 75% nitrogen", "setting": "PDC 100 μM, Trolox present or absent, p<0.05 vs corresponding cultures under 75% nitrogen", "result": "increase in the survival"}, {"measurement": "survival rate of dopaminergic neuronal cells", "setting": "PDC 100 μM, nitrogen replaced with xenon (75%)", "result": 57.7, "unit": "%"}, {"measurement": "Survival of TH-positive neurons", "setting": "no PDC (Control group II), 20% O2 + 5% CO2 + 75% Xe", "result": "+++"}]}
